Laboratory results as given in PubChem BioAssay (NCI).
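GI50 is the concentration that inhibits growth by half. TGI is the concentration that stops growth completely.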

Legend:
Assay in all cases: NCI tumour cell line growth inhibition, 384-well format
UACC-62 melanoma = system: UACC-62 melanoma
HOP-62 NSCLC = system: HOP-62 NSCLC
HCT-15 colon = system: HCT-15 colon
SK-OV-3 ovarian = system: SK-OV-3 ovarian
COLO 205 colon = system: COLO 205 colon
SN12C renal = system: SN12C renal
NCI-H522 lung = system: NCI-H522 lung
HCC-2998 colon = system: HCC-2998 colon
NCI-H23 lung = system: NCI-H23 lung
MCF7 breast = system: MCF7 breast
HL-60(TB) leukemia = system: HL-60(TB) leukemia
SK-MEL-5 melanoma = system: SK-MEL-5 melanoma
SNB-19 CNS = system: SNB-19 CNS
T-47D breast = system: T-47D breast
SF-295 CNS = system: SF-295 CNS
A549 NSCLC = system: A549 NSCLC
HS 578T breast = system: HS 578T breast
PC-3 prostate = system: PC-3 prostate
M14 melanoma = system: M14 melanoma
OVCAR-3 ovarian = system: OVCAR-3 ovarian
RPMI-8226 leukemia = system: RPMI-8226 leukemia
MDA-MB-435 melanoma = system: MDA-MB-435 melanoma
CAKI-1 renal = system: CAKI-1 renal
U251 glioblastoma = system: U251 glioblastoma
BT-549 breast = system: BT-549 breast
NCI-H226 lung = system: NCI-H226 lung
OVCAR-8 ovarian = system: OVCAR-8 ovarian
LOX IMVI melanoma = system: LOX IMVI melanoma
SNB-75 CNS = system: SNB-75 CNS
EKVX NSCLC = system: EKVX NSCLC
A498 renal = system: A498 renal
HCT-116 colon = system: HCT-116 colon
UACC-257 melanoma = system: UACC-257 melanoma
HT29 colon = system: HT29 colon
MOLT-4 leukemia = system: MOLT-4 leukemia
MDA-MB-231 breast = system: MDA-MB-231 breast
SF-268 CNS = system: SF-268 CNS
MDA-MB-468 breast = system: MDA-MB-468 breast
RXF 393 renal = system: RXF 393 renal
TK-10 renal = system: TK-10 renal
OVCAR-4 ovarian = system: OVCAR-4 ovarian
HOP-92 NSCLC = system: HOP-92 NSCLC
NCI-H322M lung = system: NCI-H322M lung
IGROV1 ovarian = system: IGROV1 ovarian
SR leukemia = system: SR leukemia
SF-539 CNS = system: SF-539 CNS
NCI/ADR-RES ovarian = system: NCI/ADR-RES ovarian
KM12 colon = system: KM12 colon
DU-145 prostate = system: DU-145 prostate
NCI-H460 NSCLC = system: NCI-H460 NSCLC
ACHN renal = system: ACHN renal

**Q.** Which results are given for `Cc1ccc(Cl)cc1-c1nc(N)nc(Nc2ccc(Br)cc2)n1`?
**A.** GI50 (UACC-62 melanoma): 45.3 nM; TGI (UACC-62 melanoma): > 100000 nM; GI50 (HOP-62 NSCLC): 36 nM; TGI (HOP-62 NSCLC): 17600 nM; GI50 (HCT-15 colon): 37.4 nM; TGI (HCT-15 colon): 271 nM; GI50 (SK-OV-3 ovarian): 38.6 nM; TGI (SK-OV-3 ovarian): 57000 nM; GI50 (COLO 205 colon): 34 nM; TGI (COLO 205 colon): 93.6 nM; GI50 (SN12C renal): 25.4 nM; TGI (SN12C renal): 37500 nM; GI50 (NCI-H522 lung): 23.9 nM; TGI (NCI-H522 lung): 47.9 nM; GI50 (HCC-2998 colon): 25.9 nM; TGI (HCC-2998 colon): 170 nM; GI50 (NCI-H23 lung): 49.9 nM; TGI (NCI-H23 lung): > 100000 nM; GI50 (MCF7 breast): 50.1 nM; TGI (MCF7 breast): > 100000 nM; GI50 (HL-60(TB) leukemia): 20.5 nM; TGI (HL-60(TB) leukemia): 35.2 nM; GI50 (SK-MEL-5 melanoma): 24.2 nM; TGI (SK-MEL-5 melanoma): 58.6 nM; GI50 (SNB-19 CNS): 54.1 nM; TGI (SNB-19 CNS): 14400 nM; GI50 (T-47D breast): 23500 nM; TGI (T-47D breast): > 100000 nM; GI50 (SF-295 CNS): 35.5 nM; TGI (SF-295 CNS): 12600 nM; GI50 (A549 NSCLC): 88 nM; TGI (A549 NSCLC): > 100000 nM; GI50 (HS 578T breast): 21.4 nM; TGI (HS 578T breast): 51.1 nM; GI50 (PC-3 prostate): 46 nM; TGI (PC-3 prostate): 51900 nM; GI50 (M14 melanoma): 28.9 nM; TGI (M14 melanoma): 71.2 nM; GI50 (OVCAR-3 ovarian): 22.3 nM; TGI (OVCAR-3 ovarian): 45.8 nM; GI50 (RPMI-8226 leukemia): 20 nM; TGI (RPMI-8226 leukemia): 38.3 nM; GI50 (MDA-MB-435 melanoma): 20 nM; TGI (MDA-MB-435 melanoma): 39.4 nM; GI50 (CAKI-1 renal): 68.8 nM; TGI (CAKI-1 renal): > 100000 nM; GI50 (U251 glioblastoma): 42.8 nM; TGI (U251 glioblastoma): 2870 nM; GI50 (BT-549 breast): 49.1 nM; TGI (BT-549 breast): 374 nM; GI50 (NCI-H226 lung): 35.6 nM; TGI (NCI-H226 lung): 97.8 nM; GI50 (OVCAR-8 ovarian): 51.8 nM; TGI (OVCAR-8 ovarian): > 100000 nM; GI50 (LOX IMVI melanoma): 55.2 nM; TGI (LOX IMVI melanoma): 569 nM; GI50 (SNB-75 CNS): 45.2 nM; TGI (SNB-75 CNS): 24300 nM; GI50 (EKVX NSCLC): 49.4 nM; TGI (EKVX NSCLC): > 100000 nM; GI50 (A498 renal): 38 nM; TGI (A498 renal): 14800 nM; GI50 (HCT-116 colon): 45.2 nM; TGI (HCT-116 colon): > 100000 nM; GI50 (UACC-257 melanoma): 40.1 nM; TGI (UACC-257 melanoma): > 100000 nM; GI50 (HT29 colon): 34.4 nM; TGI (HT29 colon): 15100 nM; GI50 (MOLT-4 leukemia): 21 nM; TGI (MOLT-4 leukemia): 37.2 nM; GI50 (MDA-MB-231 breast): 84.4 nM; TGI (MDA-MB-231 breast): > 100000 nM; GI50 (SF-268 CNS): 50.4 nM; TGI (SF-268 CNS): > 100000 nM; GI50 (MDA-MB-468 breast): 174 nM; TGI (MDA-MB-468 breast): 378 nM; GI50 (RXF 393 renal): 32.8 nM; TGI (RXF 393 renal): 36600 nM; GI50 (TK-10 renal): 70 nM; TGI (TK-10 renal): > 100000 nM; GI50 (OVCAR-4 ovarian): 57.3 nM; TGI (OVCAR-4 ovarian): 91800 nM; GI50 (HOP-92 NSCLC): 10400 nM; TGI (HOP-92 NSCLC): > 100000 nM; GI50 (NCI-H322M lung): 409 nM; TGI (NCI-H322M lung): > 100000 nM; GI50 (IGROV1 ovarian): 73.3 nM; TGI (IGROV1 ovarian): > 100000 nM; GI50 (SR leukemia): 17.3 nM; TGI (SR leukemia): 37.6 nM; GI50 (SF-539 CNS): 36.3 nM; TGI (SF-539 CNS): 1060 nM; GI50 (NCI/ADR-RES ovarian): 20.9 nM; TGI (NCI/ADR-RES ovarian): 51.3 nM; GI50 (KM12 colon): 43.4 nM; TGI (KM12 colon): 94100 nM; GI50 (DU-145 prostate): 39.5 nM; TGI (DU-145 prostate): 269 nM; GI50 (NCI-H460 NSCLC): 25.2 nM; TGI (NCI-H460 NSCLC): 63.3 nM; GI50 (ACHN renal): 77 nM; TGI (ACHN renal): > 100000 nM
